This note sets out measurements from patent US9216964B2, “Hedgehog pathway modulators” (Novartis AG, priority 2008, dated 2015).

Like-named read-outs stand apart in the source and are kept apart here.

The test system of this assay is hedgehog signaling pathway. The experiment in a line: Gli-Luc Reporter Assay for Hh Pathway Inhibition (TMHh-12 cells, pTA-8×Gli-Luc reporter). The assay is classed as cell-based, Mouse. Summed up:
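Mouse TM3 cells stably carrying an 8×Gli-firefly luciferase reporter, in 2% FBS medium; pathway activated with recombinant mouse Shh (8 μg/mL) or Smo agonist, compounds added at varying concentrations for 48 h. Luminescence read; IC50 at 50% signal reduction. Toxicity checked in TM3 cells (CellTiter-Glo) or constitutive-luciferase TM3-Luc cells.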

Where [1] appears, read: Mus musculus, TMHh12, enzymatic and cellular assays for the inhibition of hedgehog signaling pathways, read-out: IC50 Ranges.

Turning to `CCOc1cnc(-c2cc(Nc3cccc4c3CCN(C3CCS(=O)(=O)CC3)C4)ccc2C)cn1` [Compound 335], the IC50 under setting [1] was in the range of 1 to 10 nM.

Take `Cc1ccc(Nc2cccc3c2CCN(S(C)(=O)=O)C3)cc1-c1nc2ncncc2[nH]1` [Compound 63]: the IC50 under setting [1] was 10 to 100 nM.

On to `Cc1c(CN(C)C)cc(Nc2cccc3c2CCN(S(C)(=O)=O)C3)cc1-c1ccc(F)cn1` [Compound 197], for which the IC50 under setting [1] was 1000 to 10000 nM.

With `Cc1ccc(Nc2cccc3c2CCN(S(C)(=O)=O)C3)cc1-c1ccc(C(=O)N(C)C)cc1` [Compound 138], the IC50 under setting [1] was 100 to 1000 nM.

Regarding `Cc1ccc(Nc2cccc3c2CCN(S(C)(=O)=O)C3)cc1-c1ccc(N(C)C)cn1` [Compound 291], the IC50 under setting [1] lay within 0.001 to 1 nM.

`CCOc1ccc(-c2cc(Nc3cccc4c3CCN([C@@H]3CCS(=O)(=O)C3)C4)ccc2C)nn1` [Compound 339]: the IC50 under setting [1] fell in the range of 1 to 10 nM.

Turning to `Cc1ccc(Nc2nccc3c2CCN(S(C)(=O)=O)C3)cc1-c1cc2ccccc2cn1` [Compound 331], under setting [1], the IC50 lay within 10 to 100 nM.

In the case of `Cc1ccc(Nc2ncnc3c2CCN(S(C)(=O)=O)C3)cc1-c1cc2ccccc2cn1` [Compound 307], the IC50 under setting [1] lay within 0.001 to 1 nM.

For `Cc1ccc(Nc2cccc3c2CCN(S(C)(=O)=O)C3)cc1Oc1ccccn1` [Compound 214], the half-maximal inhibitory concentration (IC50) under setting [1] is 100 to 1000 nM.

As to `Cc1ncc(Nc2cccc3c2CCN(S(C)(=O)=O)C3)cc1-c1nc2ccccc2[nH]1` [Compound 111], the IC50 under setting [1] fell in the range of 1 to 10 nM.

For the molecule `CS(=O)(=O)N1CCc2c(cccc2Nc2ccc(Cl)c(-c3ccc(F)cn3)n2)C1` [Compound 303], under setting [1], the IC50 lay within 1 to 10 nM.

Regarding `Cc1ccc(-c2nc(Nc3cccc4c3CCN(S(C)(=O)=O)C4)ccc2C)nc1` [Compound 274], the IC50 under setting [1] lay in the range of 0.001 to 1 nM.

As for `Cc1ccc(Nc2cccc3c2CCN([C@@H]2CCS(=O)(=O)C2)C3)cc1-c1ncccc1F` [Compound 287], under “enzymatic and cellular assays for the inhibition of hedgehog signaling pathways, read-out: IC50 Ranges”, the IC50 was in the range of 1 to 10 nM.

In the case of `O=C(O)C(=O)N1CCc2c(cccc2Nc2ccc(Cl)c(-c3ncc(-c4ccccc4)[nH]3)c2)C1` [Compound 83], under setting [1], the IC50 lay in the range of 10 to 100 nM.

As to `Cc1ccc(Nc2cccc3c2CCN(S(C)(=O)=O)C3)cc1-c1ncc(Cl)cc1F` [Compound 290], under setting [1], the IC50 was in the range of 0.001 to 1 nM.

Turning to `CC(=O)c1ccc(-c2cc(Nc3cccc4c3CCN(S(C)(=O)=O)C4)ccc2C)cc1` [Compound 114], under setting [1], the IC50 fell in the range of 100 to 1000 nM.

`Cc1ccc(Nc2cccc3c2CCN(C2CS(=O)(=O)C2)C3)cc1-c1ncc(F)cc1F` [Compound 325]: under setting [1], the IC50 lay in the range of 0.001 to 1 nM.

For the molecule `Cc1ccc(Nc2cccc3c2CCN(S(C)(=O)=O)C3)cc1-c1nc2ccccc2[nH]1` [Compound 5], the IC50 (Mus musculus, TMHh12, Ag1.5 1 nM, read-out: Hedgehog Inhibition IC50 (nM) (Ag1.5 1 nM)) stood at 0.1 nM and the IC50 under setting [1] is 0.001 to 1 nM.

Take `Cc1ccc(Nc2cccc3c2CCN(S(C)(=O)=O)C3)cc1COc1ccccn1` [Compound 237]: the IC50 under setting [1] lay in the range of 100 to 1000 nM.

As to `Cc1ccc(Nc2cccc3c2CCN(S(C)(=O)=O)C3)cc1-c1ccc(C(=O)O)cc1` [Compound 144], the IC50 under setting [1] fell in the range of 1000 to 10000 nM.

Consider `Cc1ccc(Nc2cccc3c2CCN(S(C)(=O)=O)C3)cc1-c1ccc(-c2ccccc2)cc1` [Compound 109], for which the IC50 under setting [1] was 100 to 1000 nM.

Consider `CC(C)C(=O)N1CCc2c(cccc2Nc2ccc(Cl)c(-c3ncc(-c4ccccc4)[nH]3)c2)C1` [Compound 55], for which, under setting [1], the IC50 lay in the range of 1 to 10 nM.

As to `CCOc1ccc(-c2nc(Nc3cccc4c3CCN(C3CCS(=O)(=O)C3)C4)ccc2C)nn1` (stereo not shown) [Compound 334], the IC50 under setting [1] lay in the range of 10 to 100 nM.

On to `OCC(F)(F)CN1CCc2c(cccc2Nc2ccc(Cl)c(-c3nc(-c4ccccc4)c[nH]3)c2)C1` [Compound 71], for which the IC50 under setting [1] lay in the range of 0.001 to 1 nM.

The term IC50 denotes the point on the concentration scale where inhibition reaches its midpoint.
